The experiment concerns L1210 leukemia ip in BDF1 mice, survival T/C. Briefly: NCI In Vivo Anticancer Drug Screen. Data for tumor model L1210 Leukemia (intraperitoneal) in B6D2F1 (BDF1) mice. As to conditions: endpoint: mean survival time, higher = longer survival. A digest of the protocol: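 Mice bearing the transplanted tumor received compound or vehicle. Survival of the treated group was divided by that of the vehicle-treated control group to give the ratio.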

Where [1] appears, read: dose: 100.0 mg/kg/injection, schedule: Q04DX002 (ip), vehicle: Klucel (hydroxypropylcellulose) (HPC).
[2] abbreviates: dose: 200.0 mg/kg/injection, schedule: Q04DX002 (ip), vehicle: Klucel (hydroxypropylcellulose) (HPC).
[3] abbreviates: dose: 400.0 mg/kg/injection, schedule: Q04DX002 (ip), vehicle: Klucel (hydroxypropylcellulose) (HPC).
Where [4] appears, read: dose: 100.0 mg/kg/injection, schedule: Q04DX003 (ip), vehicle: saline with Tween-80.
The mark [5] stands for this setting: dose: 200.0 mg/kg/injection, schedule: Q04DX003 (ip), vehicle: saline with Tween-80.
The mark [6] stands for this setting: dose: 400.0 mg/kg/injection, schedule: Q04DX003 (ip), vehicle: saline with Tween-80.
[7] abbreviates: dose: 100.0 mg/kg/injection, schedule: Q01DX009 (ip), vehicle: Klucel (hydroxypropylcellulose) (HPC).
[8] abbreviates: dose: 200.0 mg/kg/injection, schedule: Q01DX009 (ip), vehicle: Klucel (hydroxypropylcellulose) (HPC).
Setting [9] is: dose: 400.0 mg/kg/injection, schedule: Q01DX009 (ip), vehicle: Klucel (hydroxypropylcellulose) (HPC).
The mark [10] stands for this setting: dose: 100.0 mg/kg/injection, schedule: Q04DX003 (ip), vehicle: saline.
The mark [11] stands for this setting: dose: 200.0 mg/kg/injection, schedule: Q04DX003 (ip), vehicle: saline.
The mark [12] stands for this setting: dose: 400.0 mg/kg/injection, schedule: Q04DX003 (ip), vehicle: saline.
[13] abbreviates: dose: 100.0 mg/kg/injection, schedule: Q04DX003 (ip), vehicle: Klucel (hydroxypropylcellulose) (HPC).
Where [14] appears, read: dose: 200.0 mg/kg/injection, schedule: Q04DX003 (ip), vehicle: Klucel (hydroxypropylcellulose) (HPC).
[15] abbreviates: dose: 400.0 mg/kg/injection, schedule: Q04DX003 (ip), vehicle: Klucel (hydroxypropylcellulose) (HPC).

Several values for one entry are separate records, joined by “and”; a condition that tells them apart may be missing. Equal values may be shown once. Inconclusive results and toxic doses are left out.

On to `CCOC(=O)c1ccc(N)cc1`, for which the T/C by setting is: (dose: 37.5 mg/kg/injection, schedule: Q01DX009 (ip), vehicle: saline with Tween-80) 107 % of control; (dose: 50.0 mg/kg/injection, schedule: Q01DX001 (ip), vehicle: saline with Tween-80) 97 % of control; (dose: 75.0 mg/kg/injection, schedule: Q01DX009 (ip), vehicle: saline with Tween-80) 107 % of control; (dose: 100.0 mg/kg/injection, schedule: Q01DX001 (ip), vehicle: saline with Tween-80) 105 % of control; (dose: 150.0 mg/kg/injection, schedule: Q01DX009 (ip), vehicle: saline with Tween-80) 91 % of control; (dose: 200.0 mg/kg/injection, schedule: Q01DX001 (ip), vehicle: saline with Tween-80) 94 % of control.

With `O=C(NCCc1ccccc1)c1ccc(Cl)cc1`, the T/C by setting is: under setting [1], 115 % of control; under setting [2], 92 % of control; under setting [3], 89 % of control.

Take `O=C(O)/C=C\C(=O)Nc1ccc(F)cc1`: the T/C was 98 % of control under setting [4], 101 % of control under setting [5] and 101 % of control under setting [6].

On to `CC(=O)Oc1cccc(C#N)c1`, for which the T/C is 98 % of control under setting [4], 107 % of control under setting [5] and 98 % of control under setting [6].

In the case of `CCOC(=O)C(=O)CC1CCCCC1`, the T/C is, setting by setting: (dose: 50.0 mg/kg/injection, schedule: Q01DX009 (ip), vehicle: saline with Tween-80) 92 % of control; (dose: 100.0 mg/kg/injection, schedule: Q01DX009 (ip), vehicle: saline with Tween-80) 100 % of control; (dose: 200.0 mg/kg/injection, schedule: Q01DX009 (ip), vehicle: saline with Tween-80) 100 % of control.

As to `CCOC(=O)c1ccc(NC(=O)NCCCCCCNC(=O)Nc2ccc(C(=O)OCC)cc2)cc1`, the T/C is, setting by setting: under setting [7], 90 % of control; under setting [8], 100 % of control; under setting [9], 100 % of control.

In the case of `CCCCCC(/C=N/N=C(N)N)=N\N=C(N)N`, the T/C reads like this: (dose: 15.0 mg/kg/injection, schedule: Q01DX Z (ip), vehicle: carboxymethylcellulose (CMC)) 98 % of control; (dose: 30.0 mg/kg/injection, schedule: Q01DX Z (ip), vehicle: carboxymethylcellulose (CMC)) 97 % of control; (dose: 30.0 mg/kg/injection, schedule: Q01DX Z (oral), vehicle: carboxymethylcellulose (CMC)) 98 % of control; (dose: 60.0 mg/kg/injection, schedule: Q01DX Z (ip), vehicle: carboxymethylcellulose (CMC)) 95 % of control; (dose: 60.0 mg/kg/injection, schedule: Q01DX Z (oral), vehicle: carboxymethylcellulose (CMC)) 87 % of control; (dose: 120.0 mg/kg/injection, schedule: Q01DX Z (oral), vehicle: carboxymethylcellulose (CMC)) 91 % of control. For the same molecule, the T/C (dose: 240.0 mg/kg/injection, schedule: Q01DX Z (oral), vehicle: carboxymethylcellulose (CMC)) was 95 % of control.

Consider `NC(=O)/C=C/c1cccnc1`, for which the T/C is 91 % of control under setting [10], 98 % of control under setting [11] and 96 % of control under setting [12].

`CCN(c1ccc2c(c1)C(=O)c1ccccc1-2)S(=O)(=O)c1ccc(C)cc1`: the T/C runs as follows: under setting [13], 96 % of control; under setting [14], 98 % of control; under setting [15], 98 % of control.

Take `Cc1c(Cl)ccc2c(=O)c(C(=O)O)c[nH]c12`: the T/C is 95 % of control under setting [13], 103 % of control under setting [14] and 97 % of control under setting [15].

Take `CCc1cc2oc(C)c(C)c2c(N=Nc2cccc([N+](=O)[O-])c2)c1O`: the T/C under setting [1] is 96 % of control, the T/C under setting [2] was 96 % of control and the T/C under setting [3] is 93 % of control.

Take `C[N+](C)(C)C1(Cc2ccc(Cl)cc2)c2ccccc2-c2ccccc21`: the T/C (dose: 12.5 mg/kg/injection, schedule: Q01DX009 (ip), vehicle: Klucel (hydroxypropylcellulose) (HPC)) was 97 % of control; the T/C (dose: 12.5 mg/kg/injection, schedule: Q04DX003 (ip), vehicle: Klucel (hydroxypropylcellulose) (HPC)) was 95 % of control; the T/C (dose: 25.0 mg/kg/injection, schedule: Q01DX009 (ip), vehicle: Klucel (hydroxypropylcellulose) (HPC)) was 92 % of control; the T/C (dose: 25.0 mg/kg/injection, schedule: Q04DX003 (ip), vehicle: Klucel (hydroxypropylcellulose) (HPC)) is 95 % of control; the T/C (dose: 50.0 mg/kg/injection, schedule: Q01DX009 (ip), vehicle: Klucel (hydroxypropylcellulose) (HPC)) was 98 % of control; the T/C (dose: 50.0 mg/kg/injection, schedule: Q04DX003 (ip), vehicle: Klucel (hydroxypropylcellulose) (HPC)) was 92 % of control.

`CCOC(=O)c1cc(OC(C)=O)c2c(ccc3cc(OC)ccc32)c1CC`: the T/C by setting is: (dose: 100.0 mg/kg/injection, schedule: Q01DX009 (ip), vehicle: saline) 91 % of control; under setting [10], 93 % of control; under setting [11], 96 % of control; (dose: 400.0 mg/kg/injection, schedule: Q01DX009 (ip), vehicle: saline) 91 % of control; under setting [12], 91 % of control.

With `CCCCOP(=S)(Cc1ccccc1)OCCCC`, the T/C runs as follows: under setting [7], 104 % of control; under setting [8], 104 % of control; under setting [9], 104 % of control.

`CNC(=S)N/N=C(\C=N\NC(=S)NC)c1ccc(C)cc1`: the T/C is 106 % of control under setting [1], 100 % of control under setting [2] and 103 % of control under setting [3].

For `O=C(Nc1cccc(Cl)c1Cl)N(CCO)C1CCCCC1`, the T/C reads like this: under setting [7], 107 % of control; under setting [8], 96 % of control; under setting [9], 94 % of control.

`CCCCCCCCOP(=O)(N1CC1)N1CC1`: the T/C reads like this: (dose: 1.0 mg/kg/injection, schedule: Q01DX015 (ip), vehicle: saline) 94 % of control; (dose: 2.0 mg/kg/injection, schedule: Q01DX015 (ip), vehicle: saline) 95 % of control; (dose: 4.0 mg/kg/injection, schedule: Q01DX015 (ip), vehicle: saline) 97 % of control; (dose: 8.0 mg/kg/injection, schedule: Q01DX001 (ip), vehicle: saline) 119 % of control; (dose: 8.2 mg/kg/injection, schedule: Q01DX015 (ip), vehicle: saline) 163 % of control; (dose: 10.5 mg/kg/injection, schedule: Q01DX015 (ip), vehicle: saline) 165 % of control and 166 % of control. The T/C (dose: 12.4 mg/kg/injection, schedule: Q01DX015 (ip), vehicle: saline) is 204 % of control; the T/C (dose: 16.0 mg/kg/injection, schedule: Q01DX015 (ip), vehicle: saline) is 209 % of control; the T/C (dose: 18.0 mg/kg/injection, schedule: Q01DX015 (ip), vehicle: saline) was 235 % of control; the T/C (dose: 18.6 mg/kg/injection, schedule: Q01DX015 (ip), vehicle: saline) was 214 % of control; the T/C (dose: 28.0 mg/kg/injection, schedule: Q01DX001 (ip), vehicle: saline) is 153 % of control; the T/C (dose: 33.5 mg/kg/injection, schedule: Q01DX015 (ip), vehicle: saline) is 207 % of control. The T/C (dose: 44.4 mg/kg/injection, schedule: Q01DX001 (ip), vehicle: saline) was 150 % of control; the T/C (dose: 50.0 mg/kg/injection, schedule: Q01DX015 (ip), vehicle: saline) was 92 % of control; the T/C (dose: 66.7 mg/kg/injection, schedule: Q01DX001 (ip), vehicle: saline) is 157 % of control and 170 % of control; the T/C (dose: 150.0 mg/kg/injection, schedule: Q01DX001 (ip), vehicle: saline) was 213 % of control.

Consider `c1cc2c(c(OCC3=NCCN3)c1)CCC2`, for which the T/C is 107 % of control (dose: 10.0 mg/kg/injection, schedule: Q01DX009 (ip), vehicle: Klucel (hydroxypropylcellulose) (HPC)); 105 % of control (dose: 20.0 mg/kg/injection, schedule: Q01DX009 (ip), vehicle: Klucel (hydroxypropylcellulose) (HPC)); 93 % of control (dose: 40.0 mg/kg/injection, schedule: Q01DX009 (ip), vehicle: Klucel (hydroxypropylcellulose) (HPC)).

Values taken from PubChem BioAssay AID248 (DTP/NCI, 2004).
